From ChEMBL document CHEMBL1148246, “Differential modulation of the antifungal activity of amphotericin B by natural and ent-cholesterol” (2004)
Values joined by “and” are separate entries in the source; they are usually repeats but may differ in a detail not shown here. Identical values can stand only once.

How the values were obtained:
Format in all cases: functional
Candida albicans [1] = assay: Reduction in antifungal activity of amphotericine B was determined against Candida albicans after addition of 60 ppm of cholesterol to the culture
Candida albicans [2] = assay: Reduction in antifungal activity of amphotericine B was determined against Candida albicans after addition of 60 ppm of compound to the culture
Candida albicans [3] = assay: Residual antifungal activity of amphotericine B was determined against Candida albicans after addition of 30 ppm of ent-cholesterol to the culture; (Range 14-24 mm)
Candida albicans [4] = assay: Residual antifungal activity of amphotericine B was determined against Candida albicans after addition of 60 ppm of cholesterol to the culture

C[C@@H]1[C@H](O)[C@@H](C)/C=C/C=C/C=C/C=C/C=C/C=C/C=C/[C@H](O[C@@H]2O[C@H](C)[C@@H](O)[C@H](N)[C@@H]2O)C[C@@H]2O[C@](O)(C[C@@H](O)C[C@@H](O)[C@H](O)CC[C@@H](O)C[C@@H](O)CC(=O)O[C@H]1C)C[C@H](O)[C@H]2C(=O)O [AMPHOTERICIN B]
Antifungal activity (Candida albicans [1]): 82% | Antifungal activity (Candida albicans [2]): 76% and 62% | Antifungal activity (Candida albicans [3]): 87% | Antifungal activity (Candida albicans [4]): 73%
